Laboratory results from the supplement of paper PMC4858399.

How the values were obtained:
Conditions in all cases: exposure time 48 h
[1] = test system: Caenorhabditis elegans N2; test: lowest effective concentration for larval growth inhibition (size below effect threshold); higher = less potent
How it was run: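 Each well of a 96-well plate received 50 C. elegans N2 L1 larvae, which grew for 48 h at 20°C in K-medium containing killed bacteria, 1% DMSO and the chemical at 0.5, 1, 5, 10, 50, 100 or 200 µM. A Biosort recorded the extinction of every worm as its size, and these readings were log-transformed and averaged per well. The lowest effective concentration is defined as the first dose at which the plate-adjusted mean size falls below the threshold and stays below it at all higher doses; that threshold is 5.665.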

[2] = test system: Caenorhabditis elegans N2; test: mean nematode size ln(EXT) after 48 h, plate-adjusted (DMSO control set to 6) (ln(EXT), control-adjusted); higher = larger nematodes / less growth inhibition
How it was run: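 Synchronised C. elegans N2 L1 larvae (50 per well, 4–6 wells per treatment) were grown for 48 h at 20°C in K-medium with killed OP50, 1% DMSO and 0.5–200 µM chemical. The Biosort measured each worm's extinction, and debris was removed by a growth model. Values were natural-logged and averaged per well. Mean size was then plate-adjusted by subtracting the vehicle control mean and adding 6.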

[3] = test system: Caenorhabditis elegans N2; test: AC50 for larval growth inhibition (Hill fit); higher = less potent
How it was run: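 After 48 h at 20°C in K-medium with killed OP50, 1% DMSO and 0.5–200 µM chemical, synchronised C. elegans N2 L1 larvae (50 per well, 96-well plates) were sized individually as extinction on a COPAS Biosort. These values were log-transformed and averaged per well, and wells with fewer than 10 worms were excluded. The AC50 was derived from a constrained Hill fit by weighted genetic-algorithm regression, and out-of-range values are censored.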

| SMILES | lowest effective concentration [1] | mean nematode size ln(EXT) (ln) ([2]; 0.5 µM) | mean nematode size ln(EXT) (ln) ([2]; 1 µM) | mean nematode size ln(EXT) (ln) ([2]; 5 µM) | mean nematode size ln(EXT) (ln) ([2]; 10 µM) | mean nematode size ln(EXT) (ln) ([2]; 50 µM) | mean nematode size ln(EXT) (ln) ([2]; 100 µM) | mean nematode size ln(EXT) (ln) ([2]; 200 µM) | AC50 for larval growth inhibition [3] |
| --- | --- | --- | --- | --- | --- | --- | --- | --- | --- |
| c1ccc(C(O[C@@H]2CCCN(CCc3ccc4c(c3)OCO4)C2)c2ccccc2)cc1 [Zamifenacin] | 10 µM | 5.83 | 5.81 | 5.73 | 5.55 | 4.99 | 4.17 | 3.31 | 70.4 µM |
| N#Cc1nn(-c2c(Cl)cc(C(F)(F)F)cc2Cl)c(N)c1[S+]([O-])C(F)(F)F (stereo not given) [Fipronil] | 10 µM | 5.96 | 5.84 | 5.92 | 5.65 | 5.59 | 5.52 | 5.17 | > 200 µM |
| O=C(OC[C@H]1O[C@@H](OC(=O)c2cc(O)c(O)c(OC(=O)c3cc(O)c(O)c(O)c3)c2)[C@H](OC(=O)c2cc(O)c(O)c(OC(=O)c3cc(O)c(O)c(O)c3)c2)[C@@H](OC(=O)c2cc(O)c(O)c(OC(=O)c3cc(O)c(O)c(O)c3)c2)[C@@H]1OC(=O)c1cc(O)c(O)c(OC(=O)c2cc(O)c(O)c(O)c2)c1)c1cc(O)c(O)c(OC(=O)c2cc(O)c(O)c(O)c2)c1 [Tannic acid] | 200 µM | 5.95 | 5.98 | 5.96 | 5.92 | 5.86 | 5.68 | 5.34 | > 200 µM |
| N#CC(Br)(Br)C(N)=O [2,2-Dibromo-3-nitrilopropionamide] | 200 µM | 6.09 | 6.03 | 6.04 | 6.07 | 5.96 | 5.94 | 5.57 | > 200 µM |
| Cc1cc(C)nc(Nc2ccccc2)n1 [Pyrimethanil] | 200 µM | 6 | 5.86 | 5.84 | 5.84 | 5.68 | 6.12 | 5.4 | 184 µM |
| CCCCOCCOCCOCc1cc2c(cc1CCC)OCO2 [Piperonyl butoxide] | 50 µM | 5.87 | 5.86 | 5.8 | 5.86 | 5.48 | 5.43 | 5.41 | 76.9 µM |
| O=C(Nc1ccc2[nH]ccc2c1)c1cc2cc(F)ccc2n1Cc1cccc(F)c1 | 1 µM | 5.77 | 5.57 | 5.5 | 3.83 | 3.84 | 3.62 | 3.51 | 6.54 µM |
| O=[N+]([O-])c1ccccc1 [Nitrobenzene] | 200 µM | 6.01 | 5.97 | 6.01 | 6.12 | 6.23 | 6.14 | 5.65 | 193 µM |
| Cc1ccc(C)c(O)c1C [2,3,6-Trimethylphenol] | 200 µM | 5.88 | 6.02 | 5.94 | 5.93 | 5.93 | 5.9 | 5.65 | > 200 µM |
| CC(C)OC(=O)Nc1cccc(Cl)c1 [Chlorpropham] | 100 µM | 5.75 | 5.77 | 5.9 | 5.95 | 5.82 | 4.79 | 4.32 | 60.7 µM |
